Values quoted from earlier work as cited in patent EP1133548B2, “DETERGENT COMPOSITIONS IN TABLET FORM” (UNILEVER PLC, priority 1998, dated 2000).

Conditions: 20°C; grams of solid to form a saturated solution in 100 grams of water

Row | Water Solubility (g/100g) | Structure (SMILES)
1 | >100 | NC(N)=O [Urea]
2 | 15 | O=P(O)(O)OP(=O)(O)OP(=O)(O)O [Sodium tripolyphosphate anhydrous]

Row | Structure (SMILES) | Water Solubility (g/100g)
3 | O=BO[O-].[Na+] [Sodium perborate anhydrous] | 3.7
